Common to all, as to assay type: cell-based
Assay [1] deals with protein kinases (human kinome) (Homo sapiens, UniProt Q15418). Conditions: for logFC: RPS6KA1 (Q15418-1), direction down.
Assay [2] addresses T1, protein kinases (human kinome) (Homo sapiens, UniProt Q6PHR2).
T1 sequence (Q6PHR2 1-472): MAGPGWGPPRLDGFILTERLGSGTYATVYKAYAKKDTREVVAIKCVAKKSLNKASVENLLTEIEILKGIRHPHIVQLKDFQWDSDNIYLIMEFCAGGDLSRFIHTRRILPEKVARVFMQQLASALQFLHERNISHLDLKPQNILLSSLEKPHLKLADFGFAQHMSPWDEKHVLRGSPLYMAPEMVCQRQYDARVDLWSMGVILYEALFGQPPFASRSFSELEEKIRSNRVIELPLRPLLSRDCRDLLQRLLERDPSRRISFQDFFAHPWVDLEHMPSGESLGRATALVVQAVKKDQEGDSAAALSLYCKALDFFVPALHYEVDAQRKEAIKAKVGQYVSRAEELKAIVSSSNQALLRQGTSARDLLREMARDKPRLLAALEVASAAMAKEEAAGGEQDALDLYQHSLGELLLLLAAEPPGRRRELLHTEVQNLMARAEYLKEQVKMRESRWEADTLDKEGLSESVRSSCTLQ
Conditions: for logFC ULK3: ULK3 (Q6PHR2-1).

For assay [3], the target named is T2, protein kinases (human kinome) (Homo sapiens, UniProt Q8TD19).
T2 sequence (Q8TD19 1-979): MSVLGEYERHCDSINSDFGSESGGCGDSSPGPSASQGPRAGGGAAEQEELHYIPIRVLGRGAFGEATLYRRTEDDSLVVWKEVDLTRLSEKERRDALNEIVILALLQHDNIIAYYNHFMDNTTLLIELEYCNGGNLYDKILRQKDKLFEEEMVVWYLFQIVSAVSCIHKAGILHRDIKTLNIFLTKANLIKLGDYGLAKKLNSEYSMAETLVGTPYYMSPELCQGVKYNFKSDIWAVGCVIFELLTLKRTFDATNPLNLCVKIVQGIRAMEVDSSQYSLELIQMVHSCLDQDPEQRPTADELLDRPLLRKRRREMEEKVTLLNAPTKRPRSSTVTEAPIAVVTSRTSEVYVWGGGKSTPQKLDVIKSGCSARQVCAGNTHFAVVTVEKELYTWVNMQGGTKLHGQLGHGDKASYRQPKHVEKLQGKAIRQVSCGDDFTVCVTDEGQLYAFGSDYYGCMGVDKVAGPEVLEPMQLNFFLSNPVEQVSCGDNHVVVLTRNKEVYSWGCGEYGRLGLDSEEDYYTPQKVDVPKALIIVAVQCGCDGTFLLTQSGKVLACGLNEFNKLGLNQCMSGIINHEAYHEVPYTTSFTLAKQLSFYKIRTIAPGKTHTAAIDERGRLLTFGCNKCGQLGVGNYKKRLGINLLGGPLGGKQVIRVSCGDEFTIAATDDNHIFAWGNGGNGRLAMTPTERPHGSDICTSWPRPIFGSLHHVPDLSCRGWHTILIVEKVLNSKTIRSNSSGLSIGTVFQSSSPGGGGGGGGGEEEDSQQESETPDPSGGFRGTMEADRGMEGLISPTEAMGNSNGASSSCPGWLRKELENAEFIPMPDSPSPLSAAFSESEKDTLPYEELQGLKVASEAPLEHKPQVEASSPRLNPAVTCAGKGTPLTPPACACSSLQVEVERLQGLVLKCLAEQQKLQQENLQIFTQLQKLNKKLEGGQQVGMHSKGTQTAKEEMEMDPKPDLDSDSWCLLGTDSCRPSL

Assay [4] concerns the target protein kinases (human kinome) (Homo sapiens, UniProt Q9BYT3). Conditions: STK33 (Q9BYT3-1).
In assay [5] the target is protein kinases (human kinome) (Homo sapiens, UniProt O14874). Conditions: BCKDK (O14874).
The mark [6] stands for this setting: NEK9 (Q8TD19), experiment wp045, direction down.
Where [7] appears, read: NEK9 (Q8TD19), experiment wp117, direction down.
The mark [8] stands for this setting: experiment wp146, direction down.
Setting [9] is: experiment wp084, direction down.
[10] abbreviates: experiment wp147, 4 uM, direction down.

Molecules are shown by their SMILES. Like-named read-outs stand apart in the source and are kept apart here.

protein kinases (human kinome) (Homo sapiens, UniProt Q15418), sequence (Q15418 whole entry): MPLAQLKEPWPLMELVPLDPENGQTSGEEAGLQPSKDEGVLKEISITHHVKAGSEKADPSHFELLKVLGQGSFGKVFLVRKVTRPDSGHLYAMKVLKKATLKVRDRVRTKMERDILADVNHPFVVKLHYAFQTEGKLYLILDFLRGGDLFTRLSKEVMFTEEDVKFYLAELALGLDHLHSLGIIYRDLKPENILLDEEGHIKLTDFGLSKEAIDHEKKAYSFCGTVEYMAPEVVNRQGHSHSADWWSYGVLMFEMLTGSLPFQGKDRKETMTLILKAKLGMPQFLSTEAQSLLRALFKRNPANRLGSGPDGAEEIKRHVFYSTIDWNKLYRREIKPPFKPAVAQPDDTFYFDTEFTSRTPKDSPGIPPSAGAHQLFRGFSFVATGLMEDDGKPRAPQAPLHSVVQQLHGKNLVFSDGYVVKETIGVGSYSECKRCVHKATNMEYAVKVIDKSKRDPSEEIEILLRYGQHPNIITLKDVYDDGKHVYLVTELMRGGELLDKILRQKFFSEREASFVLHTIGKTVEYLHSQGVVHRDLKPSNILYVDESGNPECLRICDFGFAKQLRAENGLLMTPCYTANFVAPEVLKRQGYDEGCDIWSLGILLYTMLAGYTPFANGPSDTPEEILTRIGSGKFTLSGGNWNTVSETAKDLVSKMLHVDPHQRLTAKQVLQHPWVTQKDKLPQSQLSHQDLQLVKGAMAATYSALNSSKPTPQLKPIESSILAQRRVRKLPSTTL
protein kinases (human kinome) (Homo sapiens, UniProt Q9BYT3), sequence (Q9BYT3 whole entry): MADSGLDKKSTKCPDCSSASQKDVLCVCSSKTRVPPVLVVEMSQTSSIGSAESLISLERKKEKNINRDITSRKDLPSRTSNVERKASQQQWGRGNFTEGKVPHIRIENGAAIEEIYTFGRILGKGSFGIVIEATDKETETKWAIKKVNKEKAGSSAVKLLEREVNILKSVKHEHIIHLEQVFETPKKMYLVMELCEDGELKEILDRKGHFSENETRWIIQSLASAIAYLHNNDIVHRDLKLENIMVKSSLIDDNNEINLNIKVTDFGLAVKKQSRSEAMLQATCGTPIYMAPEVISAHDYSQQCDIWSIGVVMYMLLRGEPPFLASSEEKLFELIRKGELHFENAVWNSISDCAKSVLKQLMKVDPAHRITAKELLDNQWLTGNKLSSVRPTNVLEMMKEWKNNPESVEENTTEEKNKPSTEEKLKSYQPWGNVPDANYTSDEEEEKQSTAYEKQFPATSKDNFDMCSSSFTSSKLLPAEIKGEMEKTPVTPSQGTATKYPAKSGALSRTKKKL

For the molecule `Cc1ccc(NC(=O)c2cccc(C(F)(F)F)c2)cc1N1Cc2cnc(Nc3ccc(N4CCN(Cc5cn(CCCCCOc6cccc7c6C(=O)N(C6CCC(=O)NC6=O)C7=O)nn5)CC4)nc3)nc2N(C)C1=O` (centres unmarked) [DB0646, N-(3-(7-((6-(4-((1-(5-((2-(2,6-Dioxopiperidin-3-yl)-1,3-dioxoisoindolin-4-yl)oxy)pentyl)-1H-1,2,3-triazol-4-yl)methyl)piperazin-1-v)pyridin-3-yl)amino)-1-methyl-2-oxo-1,4-dihydropyrimido[4,5-d]pyrimidin-3(2H)-yl)-4-methylphenyl)-3-(trifluoromethyl)benzamide], in assay [1] (experiment wp160, 8 hr), the logFC is listed as −0.413 and the “logFC RPS6KA1 (Q15418-1)” value is recorded as −0.413.
On to `CS(=O)(=O)Nc1cccc(-c2csc3cnc(Nc4ccc(N5CCN(CCOCCOCCOc6cccc7c6C(=O)N(C6CCC(=O)NC6=O)C7=O)CC5)cc4)nc23)c1` (centres unmarked) [RSS0628], for which, in assay [2] (experiment wp045), the “logFC ULK3” value is given as −1.086 and the “logFC ULK3 (Q6PHR2-1)” value is given as −1.086. For the same molecule, the logFC in assay [3] (setting [6]) is given as −2.438. In assay [3] (NEK9 Q8TD19, experiment wp045), this molecule yielded a logFC of −2.438.
`CS(=O)(=O)Nc1cccc(-c2csc3cnc(Nc4ccc(N5CCN(CCCCCOc6cccc7c6C(=O)N(C6CCC(=O)NC6=O)C7=O)CC5)cc4)nc23)c1` (centres unmarked) [DB0614, N-(3-(2-((4-(4-(5-((2-(2,6-Dioxopiperidin-3-yl)-1,3-dioxoisoindolin-4-yl)oxy)pentyl)piperazin-1-yl)phenyl)amino)thieno[3,2-d]pyrimidin-7-yl)phenyl)methanesulfonamide]: the figures for the “logFC ULK3” value in assay [2] (experiment wp045) and in assay [2] (experiment wp117) were −0.9461 and −0.8307, respectively. The “logFC ULK3 (Q6PHR2-1)” value in assay [2] (experiment wp045) was −0.9461; in assay [2] (experiment wp117) it was −0.8307. The logFC in assay [3] (setting [6]) is −2.74; in assay [3] (setting [7]), −3.006; in assay [3] (NEK9 Q8TD19, experiment wp045), −2.74; in assay [3] (NEK9 Q8TD19, experiment wp117) it was −3.006.
`NC(=O)c1c(F)cccc1Nc1nc(Nc2ccc(S(=O)(=O)NCCOCCOCCOCCOCCNc3cccc4c3C(=O)N(C3CCC(=O)NC3=O)C4=O)cc2)ncc1Br` (centres unmarked) [TMX.02.138]: the logFC in assay [4] (experiment wp146) and in assay [4] (setting [8]) was −1.335 throughout.
As for `Cc1cnc(Nc2ccc(N3CCN(CCCCCCC(=O)N[C@H](C(=O)N4C[C@H](O)C[C@H]4C(=O)N[C@@H](C)c4ccc(-c5scnc5C)cc4)C(C)(C)C)CC3)cc2)nc1Nc1cccc(S(=O)(=O)NC(C)(C)C)c1` [JWG.123], the logFC was −1.079 in assay [3] (NEK9 (Q8TD19), experiment wp195, direction down) and −1.079 in assay [3] (NEK9 Q8TD19, experiment wp195).
`CN(C)C(=O)c1cc2cnc(Nc3ccc(N4CCN(CCCCNC(=O)COc5cccc6c5C(=O)N(C5CCC(=O)NC5=O)C6=O)CC4)cn3)nc2n1C1CCCC1` (centres unmarked) [BSJ.04.132]: the logFC in assay [5] (experiment wp084) and in assay [5] (setting [9]) was −0.5188 throughout.
`CC(C)S(=O)(=O)c1ccccc1Nc1nc(Nc2ccc(N3CCN(CCOCCOCCNC(=O)CNc4cccc5c4C(=O)N(C4CCC(=O)NC4=O)C5=O)CC3)cc2)ncc1Cl` (centres unmarked) [TL12.186]: in assay [1] (experiment wp131), the logFC is −0.3562 and the “logFC RPS6KA1 (Q15418-1)” value is −0.3562. For the same molecule, in assay [2] (experiment wp131), the “logFC ULK3” value is −1.074 and the “logFC ULK3 (Q6PHR2-1)” value is reported as −1.074. Also, in assay [2] (experiment wp137), the “logFC ULK3” value is on record as −1.174 and the “logFC ULK3 (Q6PHR2-1)” value is reported as −1.174.
Turning to `Cc1ncsc1-c1ccc([C@H](C)NC(=O)[C@@H]2C[C@@H](O)CN2C(=O)[C@@H](NC(=O)CCCCCN2CCN(c3ccc(Nc4ncc5scc(-c6cccc(NS(C)(=O)=O)c6)c5n4)cc3)CC2)C(C)(C)C)cc1` [RSS0680, (2S,4R)-1-((S)-3,3-Dimethyl-2-(6-(4-(4-((7-(3-(methylsulfonamido)phenyl)thieno[3,2-d]pyrimidin-2-yl)amino)phenyl)piperazin-1-yl)hexanamido)butanoyl)-4-hydroxy-N—((S)-1-(4-(4-methylthiazol-5yl)phenyl)ethyl)pyrrolidine-2-carboxamide], the logFC is reported as −1.277 in assay [3] (NEK9 (Q8TD19), experiment wp080, direction down); −1.483 in assay [3] (setting [7]); −1.277 in assay [3] (NEK9 Q8TD19, experiment wp080); −1.483 in assay [3] (NEK9 Q8TD19, experiment wp117).
For the molecule `CC(=O)c1c(C)c2cnc(Nc3ccc(N4CCN(CCOCCOCCOCCNC(=O)COc5cccc6c5C(=O)N(C5CCC(=O)NC5=O)C6=O)CC4)cn3)nc2n(C2CCCC2)c1=O` (centres unmarked) [BSJ.03.123], the logFC in assay [5] (experiment wp084) and in assay [5] (setting [9]) was −0.4553 each time.
`Cc1cc(Nc2ncc(Br)c(Nc3cccc(F)c3C(N)=O)n2)ccc1S(=O)(=O)NCCOCCOCCOCCOCCNc1cccc2c1C(=O)N(C1CCC(=O)NC1=O)C2=O` (centres unmarked) [TMX.02.174]: the logFC was −0.3626 in assay [3] (NEK9 (Q8TD19), experiment wp146, direction down); −0.3626 in assay [3] (NEK9 Q8TD19, experiment wp146); −1.763 in assay [4] (experiment wp146); −1.763 in assay [4] (setting [8]).
Turning to `CNC(=O)c1ccccc1Nc1cc(Nc2ccc(N3CCN(CCOCCOCCNC(=O)CNc4cccc5c4C(=O)N(C4CCC(=O)NC4=O)C5=O)CC3)cc2OC)ncc1C(F)(F)F` (centres unmarked) [MFH.5.103.1], the logFC is on record as −2.784 in assay [4] (experiment wp076) and −2.784 in assay [4] (experiment wp076, direction down).
With `CC(C)(C)c1nc(-c2cccc(NS(=O)(=O)c3c(F)cccc3F)c2F)c(-c2ccnc(NCCOCCNC(=O)CCOCCOCCNc3cccc4c3C(=O)N(C3CCC(=O)NC3=O)C4=O)n2)s1` (centres unmarked) [DD.03.106], the logFC in assay [5] (experiment wp137) is recorded as −0.3275; in assay [5] (experiment wp137, direction down), −0.3275; in assay [5] (experiment wp147, 4 uM), −0.5831; in assay [5] (setting [10]), −0.5831.
Take `Cc1ccc(NC(=O)c2cccc(C(F)(F)F)c2)cc1N1Cc2cnc(Nc3ccc(N4CCN(CCCCC(=O)N[C@H](C(=O)N5C[C@H](O)C[C@H]5C(=O)N[C@@H](C)c5ccc(-c6scnc6C)cc5)C(C)(C)C)CC4)nc3)nc2N(C)C1=O` [DB1113]: in assay [1] (experiment wp168), the logFC was −0.7297 and the “logFC RPS6KA1 (Q15418-1)” value is −0.7297.
In the case of `Cc1ccc(NC(=O)c2cccc(C(F)(F)F)c2)cc1N1Cc2cnc(Nc3ccc(N4CCN(CCCOc5cccc6c5C(=O)N(C5CCC(=O)NC5=O)C6=O)CC4)nc3)nc2N(C)C1=O` (centres unmarked) [DB0662], in assay [1] (experiment wp168), the logFC is listed as −0.4724 and the “logFC RPS6KA1 (Q15418-1)” value was −0.4724.
Take `CC(C)S(=O)(=O)c1ccccc1Nc1nc(Nc2ccc(N3CCN(CCOCCOCCC(=O)NCCNc4cccc5c4CN(C4CCC(=O)NC4=O)C5=O)CC3)cc2)ncc1Cl` (centres unmarked) [TL13.97]: in assay [2] (experiment wp137), the “logFC ULK3” value is reported as −0.3729 and the “logFC ULK3 (Q6PHR2-1)” value is −0.3729.
Consider `CC(C)(C)c1nc(-c2cccc(NS(=O)(=O)c3c(F)cccc3F)c2F)c(-c2ccnc(NCCOCCNC(=O)CCOCCOCCNc3cccc4c3CN(C3CCC(=O)NC3=O)C4=O)n2)s1` (centres unmarked) [DD.03.107], for which the logFC was −1.113 in assay [5] (experiment wp147, 4 uM) and −1.113 in assay [5] (setting [10]).

For the origin of these results see US20240269139A1, “COMPOUNDS FOR TARGETED PROTEIN DEGRADATION OF KINASES” (DANA-FARBER CANCER INSTITUTE, INC., priority 2020, published 2024).
